In test [1] the target is T1, Protein farnesyltransferase (Homo sapiens, UniProt P49354+P49356). Put plainly: Inhibition of FTase (unknown origin). It counts as protein-complex assay.
Test [2] has as its target T2, Geranylgeranyl transferase type I (Homo sapiens, UniProt P49354+P53609). Put plainly: Inhibition of GGTase1 (unknown origin). The format is protein-complex assay.
In test [3] the target is T1, Protein farnesyltransferase. The experiment in a line: Inhibition of FTase isolated from human Burkitt's lymphoma cells assessed as decrease in transfer of [3H]farnesyl from [3H]farnesyl PPi to H-Ras-CVLS.
The target of test [4] is T2, Geranylgeranyl transferase type I. Put plainly: Inhibition of GGTase1 isolated from human Burkitt's lymphoma cells assessed as decrease in transfer of [3H]H]geranylgeranyl from [3H]geranylgeranyl PPi to H-Ras-CVLL.
For test [5] the target is unchanged. Put plainly: Inhibition of GGTase1 (unknown origin) expressed in mouse NIH-3T3 cells transfected with k-Ras4B assessed as decrease in geranylgeranylation of k-Ras4B after 24 hrs by chemoluminescence assay. The format is cell-based.
Test [6] deals with T1, Protein farnesyltransferase. Put plainly: Inhibition of FTase (unknown origin) expressed in mouse NIH-3T3 cells transfected with human H-Ras assessed as decrease in farnesylation of H-Ras after 24 hrs by chemoluminescence assay. The format is cell-based.
Test [7] concerns the target T3, Glycylpeptide N-tetradecanoyltransferase (Neosartorya fumigata (strain ATCC MYA-4609 / Af293 / CBS 101355 / FGSCA1100) (Aspergillus fumigatus), UniProt Q9UVX3).
T3 sequence (Q9UVX3 whole entry): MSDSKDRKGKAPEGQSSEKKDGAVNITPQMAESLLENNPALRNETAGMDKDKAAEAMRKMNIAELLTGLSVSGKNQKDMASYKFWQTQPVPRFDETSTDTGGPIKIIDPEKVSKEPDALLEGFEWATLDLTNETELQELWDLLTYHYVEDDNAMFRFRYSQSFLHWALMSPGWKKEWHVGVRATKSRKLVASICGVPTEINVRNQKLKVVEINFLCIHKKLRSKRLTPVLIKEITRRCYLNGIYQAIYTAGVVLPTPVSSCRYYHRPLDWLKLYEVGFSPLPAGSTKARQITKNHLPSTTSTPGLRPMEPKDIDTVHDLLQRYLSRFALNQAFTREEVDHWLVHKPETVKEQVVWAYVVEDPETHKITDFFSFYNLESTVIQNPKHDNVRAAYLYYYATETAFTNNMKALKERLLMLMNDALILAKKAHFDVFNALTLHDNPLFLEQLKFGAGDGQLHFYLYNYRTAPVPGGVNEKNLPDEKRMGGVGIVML
Put plainly: Inhibition of recombinant Aspergillus fumigatus NMT (Gln86 to Leu492 residues) expressed in Escherichia coli BL21(DE3) pLysS cells using [3H]-myristoyl coenzyme A/CAP5.5 as substrate after 20 mins by scintillation proximity assay. On the technique in general: Scintillation proximity formats need no separation of bound from free tracer.

The target of test [8] is geranylgeranyltransferase type-I (Rattus norvegicus, UniProt P53610+Q04631). Put plainly: Inhibition of rat brain GGTase1 assessed as decrease in transfer of [3H]H]geranylgeranyl from [3H]geranylgeranyl PPi to H-Ras-CVLL after 30 mins by liquid scintillation counting method.
Test [9] has as its target T1, Protein farnesyltransferase. Put plainly: Inhibition of FTase (unknown origin) using H-ras as substrate. It counts as protein-complex assay.

As a reminder, the IC50 is the concentration that gives 50% inhibition. On to `COC(=O)[C@H](CCSC)NC(=O)CN1C[C@H](N(C)C(=O)[C@H](N)CS)N=C(c2ccccc2)c2ccccc21`, for which the IC50 was 41 nM in test [1] and more than 1000 nM in test [2].

Regarding `CC(C)C[C@H](NC(=O)c1ccc(NC[C@@H](N)CS)cc1-c1cccc2ccccc12)C(=O)O`, the figures for the IC50 in test [3] and in test [4] were 200 nM and 50 nM, respectively.

Consider `COC(=O)[C@H](CC(C)C)NC(=O)c1ccc(NC[C@@H](N)CS)cc1-c1ccccc1`, for which the values for the IC50 in test [5] and in test [6] were 2000 nM and more than 30000 nM, respectively.

As to `Cc1c(NS(=O)(=O)c2c(Cl)cc(-c3ccnc(N4CCNCC4)c3)cc2Cl)c(CC(C)C)nn1C` [ZELENIRSTAT], the IC50 in [7] stood at 12 nM.

As for `NC(=O)N1CCC(CC(=O)N2CCC([C@H]3c4ncc(Br)cc4CCc4cc(Cl)cc(Br)c43)CC2)CC1` [LONAFARNIB], the IC50 in test [8] is more than 1000 nM.

In test [9], `O=C(c1cn(Cc2cncn2Cc2ccc(Br)cc2)cc1-c1cccc2ccccc12)N1CCOCC1` registered an IC50 of 0.8 nM.

Values taken from ChEMBL document CHEMBL4184146, “Interrogating the Roles of Post-Translational Modifications of Non-Histone Proteins” (J Med Chem, 2018).
